Data taken from PubChem BioAssay AID256 (DTP/NCI, 2004).
Inconclusive results and toxic doses are left out. Rule for the calls: active = survival T/C of 150% or more; inactive = T/C below 125% in these data.

Test system: CD2F1 mice, L1210 leukemia ip, survival T/C
Test: NCI In Vivo Anticancer Drug Screen. Data for tumor model L1210 Leukemia (intraperitoneal) in CD2F1 (CDF1) mice
Conditions: endpoint: mean survival time, higher = longer survival
How it was run: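 Compound-dosed mice with transplantable tumor versus matched vehicle controls; endpoint ratio T/C reported.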

[1] = dose: 100.0 mg/kg/injection, schedule: Q01DX001 (ip), vehicle: saline
[2] = dose: 100.0 mg/kg/injection, schedule: Q01DX009 (ip), vehicle: saline with Tween-80
[3] = dose: 100.0 mg/kg/injection, schedule: Q04DX003 (ip), vehicle: saline with Tween-80
[4] = dose: 200.0 mg/kg/injection, schedule: Q04DX003 (ip), vehicle: saline with Tween-80
[5] = dose: 400.0 mg/kg/injection, schedule: Q04DX003 (ip), vehicle: saline with Tween-80
[6] = dose: 50.0 mg/kg/injection, schedule: Q04DX003 (ip), vehicle: saline with Tween-80
[7] = dose: 100.0 mg/kg/injection, schedule: Q01DX001 (ip), vehicle: saline with Tween-80
[8] = dose: 200.0 mg/kg/injection, schedule: Q01DX001 (ip), vehicle: saline with Tween-80
[9] = dose: 400.0 mg/kg/injection, schedule: Q01DX001 (ip), vehicle: saline with Tween-80
[10] = dose: 12.5 mg/kg/injection, schedule: Q04DX003 (ip), vehicle: saline
[11] = dose: 25.0 mg/kg/injection, schedule: Q04DX003 (ip), vehicle: saline

Measured: T/C

CCOC(=O)Nc1cc(NCC(O)CN(C)c2ccccc2)c([N+](=O)[O-])c(NC(=O)OCC)n1 (stereo not drawn)
inactive: dose: 100.0 mg/kg/injection, schedule: Q01DX001 (ip), vehicle: carboxymethylcellulose (CMC) 96 % of control | dose: 200.0 mg/kg/injection, schedule: Q01DX001 (ip), vehicle: carboxymethylcellulose (CMC) 91 % of control | dose: 400.0 mg/kg/injection, schedule: Q01DX001 (ip), vehicle: carboxymethylcellulose (CMC) 87 % of control

ClCCN(CCCl)CCCN1c2ccccc2Sc2ccc(Cl)cc21
inactive: dose: 18.0 mg/kg/injection, schedule: Q01DX001 (ip), vehicle: saline with Tween-80 103 % of control | dose: 28.0 mg/kg/injection, schedule: Q01DX001 (ip), vehicle: saline with Tween-80 100 % of control | dose: 40.0 mg/kg/injection, schedule: Q01DX001 (ip), vehicle: saline with Tween-80 97 % of control | dose: 60.0 mg/kg/injection, schedule: Q01DX001 (ip), vehicle: saline with Tween-80 103 % of control | dose: 90.0 mg/kg/injection, schedule: Q01DX001 (ip), vehicle: saline with Tween-80 107 % of control | dose: 135.0 mg/kg/injection, schedule: Q01DX001 (ip), vehicle: saline with Tween-80 112 % of control

O=C1NC(=S)NC(=O)C1Cc1ccccc1O
inactive: [1] 100 % of control | dose: 200.0 mg/kg/injection, schedule: Q01DX001 (ip), vehicle: saline 100 % of control | dose: 400.0 mg/kg/injection, schedule: Q01DX001 (ip), vehicle: saline 101 % of control

C=C1C(=O)OC2C1CCC(C)C1(O)C=CC(=O)C21C (stereo not drawn)
inactive: dose: 50.0 mg/kg/injection, schedule: Q01DX001 (ip), vehicle: saline 107 % of control | [1] 97 % of control

CC(=O)Nc1cc(C)ccc1O
inactive: [2] 98 % of control | [3] 96 % of control | dose: 200.0 mg/kg/injection, schedule: Q01DX009 (ip), vehicle: saline with Tween-80 95 % of control | [4] 104 % of control | dose: 400.0 mg/kg/injection, schedule: Q01DX009 (ip), vehicle: saline with Tween-80 87 % of control | [5] 90 % of control

Nc1ccc2sccc2c1
inactive: [3] 103 % of control | [4] 102 % of control | [5] 101 % of control

CN1Cc2c([nH]c3ccccc23)C(O)C1 (stereo not drawn)
inactive: dose: 75.0 mg/kg/injection, schedule: Q01DX001 (ip), vehicle: saline 98 % of control | dose: 150.0 mg/kg/injection, schedule: Q01DX001 (ip), vehicle: saline 106 % of control

CCCCC(CC)CNCC(CC)CCCC (stereo not drawn)
inactive: [6] 93 % of control | [3] 91 % of control

OC(CCC(O)CSc1ccccc1)CSc1ccccc1 (stereo not drawn)
inactive: dose: 100.0 mg/kg/injection, schedule: Q01DX009 (ip), vehicle: other 100 % of control | dose: 200.0 mg/kg/injection, schedule: Q01DX009 (ip), vehicle: other 100 % of control | dose: 400.0 mg/kg/injection, schedule: Q01DX009 (ip), vehicle: other 96 % of control

CCOC(=O)Cn1c(=O)cc(C)c2ccccc21
inactive: [3] 100 % of control | [4] 101 % of control | [5] 101 % of control

CC(=O)N(C(C)=O)c1ccc2c3c(cccc13)CC2
inactive: [6] 110 % of control | [3] 104 % of control | [4] 101 % of control

CC(C)[CH2][Sn](=[O])[OH]
inactive: dose: 50.0 mg/kg/injection, schedule: Q01DX009 (ip), vehicle: saline with Tween-80 115 % of control | [2] 103 % of control

O=C(C=C(C(F)(F)F)C(F)(F)F)c1ccc(Br)cc1
inactive: dose: 12.5 mg/kg/injection, schedule: Q01DX009 (ip), vehicle: other 107 % of control | dose: 25.0 mg/kg/injection, schedule: Q01DX009 (ip), vehicle: other 110 % of control | dose: 100.0 mg/kg/injection, schedule: Q04DX003 (ip), vehicle: other 105 % of control

COC(=O)C1C2C=CC(CC2)C1C(=O)OC (stereo not drawn)
inactive: [7] 103 % of control | [8] 88 % of control | [9] 103 % of control

Nc1ccc(Nc2c3ccccc3nc3ccccc23)cc1
inactive: dose: 6.25 mg/kg/injection, schedule: Q04DX003 (ip), vehicle: saline 101 % of control | [10] 111 % of control | [11] 114 % of control

CNC(=S)N(/N=C/c1cc(Cl)cc(Cl)c1O)c1ccccc1
inactive: [7] 87 % of control | [8] 87 % of control | [9] 91 % of control

c1ccc2c(c1)CC1Nc3ccccc3C21 (stereo not drawn)
inactive: [7] 97 % of control | [8] 97 % of control | [9] 96 % of control

O=[N+]([O-])c1ccc2c(c1[N+](=O)[O-])CCCC2
inactive: [7] 104 % of control | [8] 107 % of control | [9] 93 % of control

CN(C)C(c1ccccc1)P(=O)(O)O (stereo not drawn)
inactive: dose: 100.0 mg/kg/injection, schedule: Q04DX003 (ip), vehicle: saline 98 % of control | dose: 200.0 mg/kg/injection, schedule: Q04DX003 (ip), vehicle: saline 101 % of control | dose: 400.0 mg/kg/injection, schedule: Q04DX003 (ip), vehicle: saline 98 % of control

CCN(CC)Cc1cc(Nc2nc(NC3CCC(N(C)C)CC3)c3ccccc3n2)ccc1OC (stereo not drawn)
inactive: [10] 103 % of control | [11] 97 % of control | dose: 50.0 mg/kg/injection, schedule: Q04DX003 (ip), vehicle: saline 105 % of control

NCc1c(Cl)c(Cl)c(Cl)c(CN)c1Cl
inactive: [6] 100 % of control | [3] 100 % of control | [4] 98 % of control

S=c1[nH]ncn1/N=C/c1ccccc1Cl
inactive: [3] 95 % of control | [4] 101 % of control | [5] 89 % of control
